Test results as given in BindingDB's records for doi:10.1073/pnas.83.22.8784 (The Oregon Health Sciences University, 1986).
pKi: −log10 of the molar value.

What was measured:
[1] = molecular target: T1, Alpha-1A adrenergic receptor (Rattus norvegicus, UniProt P43140)
T1 sequence (P43140 whole entry): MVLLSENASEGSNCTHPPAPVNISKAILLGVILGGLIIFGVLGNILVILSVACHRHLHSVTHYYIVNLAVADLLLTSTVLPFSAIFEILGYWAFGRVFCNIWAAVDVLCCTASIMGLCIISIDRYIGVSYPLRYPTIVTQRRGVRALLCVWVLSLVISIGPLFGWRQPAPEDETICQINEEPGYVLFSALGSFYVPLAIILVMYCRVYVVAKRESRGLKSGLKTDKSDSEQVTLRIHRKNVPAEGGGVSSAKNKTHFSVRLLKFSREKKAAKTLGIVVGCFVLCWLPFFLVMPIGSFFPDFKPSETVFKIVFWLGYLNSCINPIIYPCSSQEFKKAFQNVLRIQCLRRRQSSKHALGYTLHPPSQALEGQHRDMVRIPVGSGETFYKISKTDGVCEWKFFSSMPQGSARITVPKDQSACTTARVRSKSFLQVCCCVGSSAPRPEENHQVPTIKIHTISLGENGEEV

[2] = molecular target: T2, Alpha-2C adrenergic receptor (Rattus norvegicus, UniProt P22086)
T2 sequence (P22086 whole entry): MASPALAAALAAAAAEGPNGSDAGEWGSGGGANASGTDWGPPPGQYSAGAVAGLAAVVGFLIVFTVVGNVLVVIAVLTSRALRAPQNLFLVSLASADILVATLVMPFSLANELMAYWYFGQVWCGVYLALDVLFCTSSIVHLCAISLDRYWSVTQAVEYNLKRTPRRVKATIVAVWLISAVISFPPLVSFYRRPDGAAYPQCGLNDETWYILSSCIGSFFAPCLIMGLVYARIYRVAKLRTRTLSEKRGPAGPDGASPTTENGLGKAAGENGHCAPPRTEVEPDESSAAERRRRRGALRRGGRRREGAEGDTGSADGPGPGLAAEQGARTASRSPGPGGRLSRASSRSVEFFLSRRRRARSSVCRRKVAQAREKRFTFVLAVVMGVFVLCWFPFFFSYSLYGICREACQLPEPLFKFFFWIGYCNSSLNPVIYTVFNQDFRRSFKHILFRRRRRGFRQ

[3] = molecular target: 5-hydroxytryptamine receptor 2A (Rattus norvegicus, UniProt P14842)
5-hydroxytryptamine receptor 2A, sequence (P14842 whole entry): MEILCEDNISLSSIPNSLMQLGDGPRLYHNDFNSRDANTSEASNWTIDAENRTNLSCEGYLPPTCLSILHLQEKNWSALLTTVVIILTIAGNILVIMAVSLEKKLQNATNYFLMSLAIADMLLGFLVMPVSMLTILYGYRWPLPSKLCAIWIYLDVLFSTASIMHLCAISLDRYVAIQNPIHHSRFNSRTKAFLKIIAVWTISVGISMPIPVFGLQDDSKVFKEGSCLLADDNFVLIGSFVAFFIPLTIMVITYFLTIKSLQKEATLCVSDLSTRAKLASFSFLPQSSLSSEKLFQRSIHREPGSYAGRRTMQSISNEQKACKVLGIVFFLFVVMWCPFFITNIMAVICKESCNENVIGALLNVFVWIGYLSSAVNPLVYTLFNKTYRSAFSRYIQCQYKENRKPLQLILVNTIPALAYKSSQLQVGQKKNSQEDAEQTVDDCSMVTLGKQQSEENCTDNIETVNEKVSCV

Cc1nc2sccn2c(=O)c1CCN1CCC(=C(c2ccc(F)cc2)c2ccc(F)cc2)CC1
pKi [1]: 6.72 | pKi [2]: 6.20

O=C(c1ccc(F)cc1)C1CCN(CCCCn2c(=O)[nH]c3ccccc3c2=O)CC1 [CAS_87051-46-5]
pKi [1]: 8.73 | pKi [2]: 7.12

Cn1c(=O)c2c(ncn2CCN2CCC(C(=O)c3ccc(F)cc3)CC2)n(C)c1=O [NSC_71255]
pKi [3]: 8.35 | pKi [1]: 6.92 | pKi [2]: 6.38

Cc1nc2ccccn2c(=O)c1CCN1CCC(=C(c2ccc(F)cc2)c2ccc(F)cc2)CC1 [NSC_159037]
pKi [3]: 8.22 | pKi [1]: 6.59 | pKi [2]: 6.55

O=C(c1ccc(F)cc1)C1CCN(CCn2c(=O)[nH]c3ccccc3c2=O)CC1 [3-(2-{4-[(4-fluorophenyl)carbonyl]piperidin-1-yl}ethyl)-1,2,3,4-tetrahydroquinazoline-2,4-dione]
pKi [1]: 7.14 | pKi [2]: 6.53

NC(N)=NN=Cc1c(Cl)cccc1Cl [Guanabenz]
pKi [3]: 6.70 | pKi [2]: < 5.00
